Measured values reported in patent US9340568B2, “Solid forms of an antiviral compound” (Gilead Pharmasset LLC, priority 2013, dated 2016).

Assay: Dynamic vapor sorption (DVS) moisture sorption isotherm
Format: physicochemical
Conditions: relative humidity (RH) of 90%, sorption cycle 1
Protocol: DVS isotherms were generated on a Surface Measurement Systems Dynamic Vapor Sorption Advantage moisture sorption analyzer. Water adsorption and desorption were studied as a function of relative humidity over the range of 0 to 90% RH using 10% RH steps with a fixed equilibration time of 60 minutes per step.

| SMILES | change in mass as measured by dynamic vapor sorption (DVS) |
| --- | --- |
| CC(C)OC(=O)[C@H](C)N[P@](=O)(OC[C@H]1O[C@@H](n2ccc(=O)[nH]c2=O)[C@](C)(F)[C@@H]1O)Oc1ccccc1 [Compound I, Form 7, (S)-isopropyl 2-((S)-(((2R,3R,4R,5R)-5-(2,4-dioxo-3,4-dihydropyrimidin-1(2H)-yl)-4-fluoro-3-hydroxy-4-methyltetrahydrofuran-2-yl)methoxy)(phenoxy)phosphorylamino) propanoate] | about 0.15% |
| CC(C)OC(=O)[C@H](C)N[P@](=O)(OC[C@H]1O[C@@H](n2ccc(=O)[nH]c2=O)[C@](C)(F)[C@@H]1O)Oc1ccccc1 [Compound I, Form 8, (S)-isopropyl 2-(((S)-(((2R,3R,4R,5R)-5-(2,4-dioxo-3,4-dihydropyrimidin-1(2H)-yl)-4-fluoro-3-hydroxy-4-methyltetrahydrofuran-2-yl)methoxy)(phenoxy)phosphoryl)amino) propanoate] | about 0.17% |
